# From publication PMC6479981, “Design, Synthesis, and In Vitro Biological Activities of a Bio-Oxidizable Prodrug to Deliver Both ChEs and DYRK1A Inhibitors for AD Therapy” (Molecules, 2019)
# Read-outs that look alike come from different tables or passages of the source.
# Tests used:
# hBuChE [1] = biological target: T1, hBuChE (Homo sapiens, UniProt P06276); assay: biochemical; assay type: biochemical
# T1 construct: purchased Aldrich
# Procedure: (§1) Inhibitory capacity of compounds on hAChE and hBuChE biological activity was evaluated through the use of Ellman’s spectrometric method. Acetylthiocholine iodide (ATCI), […] (BTCI) and 5,5-dithiobis-(2-nitrobenzoic) acid (DTNB) were purchased from Sigma Aldrich. Lyophilized hAChE and hBuChE were purchased from Aldrich, and were diluted in phosphate buffer (pH 8) so as to give an enzyme solution with 0.25 units/mL enzyme activity. In the procedure, 100 μL of 0.3 mM DTNB dissolved in phosphate buffer pH 7.4 were added into the 96 well plate, followed by 50 μL of the tested compound solution and 50 μL of enzyme solution. After 5 min of preincubation, the reaction was then initiated by the injection of 50 μL of 10 mM ATCI or BTCI solution. […] All assays were performed in duplicate, and IC50 values were determined graphically from 8 points inhibition curves using the Prism® software.
# hAChE [2] = biological target: T2, hAChE (Homo sapiens, UniProt P22303); assay: biochemical; assay type: biochemical
# T2 construct: purchased Aldrich
# Procedure: as §1
# human recombinant DYRK1A = biological target: T3, human recombinant DYRK1A (Homo sapiens, UniProt Q13627); assay: biochemical; settings: for inhibition at 1 µM: read-out: DYRK1a Inhibition (%)
# T3 construct: Eurofins Pharma Discovery (ran the assay)
# Procedure: Evaluation of the effects of compounds on the activity of the human recombinant DYRK1A was made using the LANCE® detection method, and was quantified by measuring the phosphorylation of Ulight-[…]-amide (MBP). The assays were conducted by Eurofins Pharma Discovery in Bois l’Evêque, France. […] Next, 100 nM of Ulight-[…]-amide (MBP) and 10 µM ATP were added to initiate the reaction, and the mixture was incubated for 30 min at 25 °C. A blank without enzyme was also performed for control basal measurements. The experiment was stopped by addition of 13 mM EDTA, followed by the addition of the anti-phospho-MBP antibody labeled with europium chelate after 5 min. […] Outputs are expressed as a percentage of inhibition of the control DYRK1A activity.
# [3] = biological target: T4, peripheral binding site of eeAChE (Electrophorus electricus, UniProt O42275); assay: Propidium iodide displacement (competition) assay
# T4 construct: purchased Aldrich
# Procedure: The assays were performed at the Centre d’Etudes et de Recherche sur le Médicament de Normandie (CERMN) in Caen, France. […] Fluorescence intensity was monitored using a microplate reader. […] Each assay was performed in triplicate.
# [4] = PAMPA-BBB permeability assay; assay type: in vitro ADME; settings: pH 7.4, 4 h, room temperature
# Procedure: Assays were performed at the Centre d’Etudes et de Recherche sur le Médicament de Normandie (CERMN) in Caen, France. These assays were realized according to the methodology developed by PION, by means of the Pampa-BBB Explorer™ system. This system allows the measurement of the crossing velocity of a compound from one compartment to another through an artificial membrane at pH = 7.4. The experiment was replicated 6 times in 4 h, with quantification by UV-spectra reading. The result is given in Pe [cm·s^−1], and an interpretation by comparison with standard compounds is proposed. The studied compounds were diluted at 20 mM in DMSO, then diluted at […] in Prisma HT Buffer pH 7.4 (pION). 200 µL of this solution was placed in the wells of the donor plate. 5 μL of BBB-1 Lipid was placed in the filters of the acceptor plate. 200 µL of Brain Sink Buffer was added in the wells of the acceptor plate. The sandwich was then assembled and incubated for 4 h at room temperature, without stirring. The sandwich was then separated and the UV-vis spectra of the donor and acceptor compartments were determined with the plate reader (Tecan infinite M200, Männedorf, Switzerland). Pe were calculated with the PAMPA Explorer software v.3.7 (pION Inc, Billerica, MA, USA). Standard compounds used were corticosterone and theophylline.
# hBuChE [5] = biological target: T1, hBuChE; assay: Time-dependent (stopped time) kinetic study of hBuChE inhibition; assay type: biochemical
# Procedure: (§2) To support the assumption of the pseudo-irreversible inhibition mechanism of both ChEs by compound 14, kinetic studies were also performed using stopped time assays at different concentrations of ligand 14. […] Using a nonlinear regression fitting analysis, the pseudo-first-order inhibition rate constant (kobs) for each concentration of 14 was obtained and the equilibrium constant (Kc) and the carbamoylation rate constant (k3) was determined by the reported method.
# (§3) For the time-dependent experiments, assays were performed using a 96 well microplate reader to a final volume of 250 μL, a final enzyme concentration of 0.05 U·mL^−1 and an ATCI (or BTCI) and DNTB concentrations of 0.3 and 0.5 mM respectively in phosphate buffer (pH 8). At the starting time (t0), the inhibitor at various concentration (150 μL) was added to an equivalent volume of hAChE (or hBuChE). The mixture was then incubated at 37 °C and, at different time points, 50 μL aliquots were transferred to wells containing a solution of ATCI (or BTCI) and DTNB in phosphate buffer (200 μL) and the activity was determined by measuring the changes in absorbance at 412 nm every minute for 10 min. Blank experiments were also performed without inhibitor. The first order inhibition constant kobs was determined for all inhibitor concentrations using a nonlinear regression. Data were fitted with the equation, A = A0 exp(−kobs·t) + A∞ with A, A0, A∞ being ratios of the inhibited enzyme activity to the control activity at time t, 0, and ∞. Double reciprocal plots of kobs versus the inhibitor concentration were made to determine the equilibrium constant Kc and the carbamoylation rate constant k3, following the described method.
# hAChE [6] = biological target: T2, hAChE; assay: Time-dependent (stopped time) kinetic study of hAChE inhibition; assay type: biochemical
# Procedure: as §2, §3
# [7] = mean value of duplicate, 5 min preincubation, read-out: IC50 hBuChE
# [8] = mean value of duplicate, 5 min preincubation, read-out: IC50 hAChE
# [9] = at 1 μM compound, 10 μM ATP concentration, mean value of duplicate
# T1 sequence (P06276 29-602): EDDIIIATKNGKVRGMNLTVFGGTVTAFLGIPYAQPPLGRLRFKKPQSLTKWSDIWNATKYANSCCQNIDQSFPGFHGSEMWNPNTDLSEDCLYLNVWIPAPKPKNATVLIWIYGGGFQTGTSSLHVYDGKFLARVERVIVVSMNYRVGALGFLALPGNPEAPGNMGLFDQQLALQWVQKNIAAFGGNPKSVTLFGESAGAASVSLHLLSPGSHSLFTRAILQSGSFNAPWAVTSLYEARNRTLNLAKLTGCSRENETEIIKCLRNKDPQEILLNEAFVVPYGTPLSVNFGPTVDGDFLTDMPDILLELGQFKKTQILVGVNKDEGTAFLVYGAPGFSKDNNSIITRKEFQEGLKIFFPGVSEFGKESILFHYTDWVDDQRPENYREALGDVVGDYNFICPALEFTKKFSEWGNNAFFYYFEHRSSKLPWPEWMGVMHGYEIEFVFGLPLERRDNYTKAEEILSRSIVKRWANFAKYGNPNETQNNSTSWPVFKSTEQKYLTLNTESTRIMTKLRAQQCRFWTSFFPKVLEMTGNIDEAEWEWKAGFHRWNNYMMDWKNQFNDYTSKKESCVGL
# T2 sequence (P22303 32-614): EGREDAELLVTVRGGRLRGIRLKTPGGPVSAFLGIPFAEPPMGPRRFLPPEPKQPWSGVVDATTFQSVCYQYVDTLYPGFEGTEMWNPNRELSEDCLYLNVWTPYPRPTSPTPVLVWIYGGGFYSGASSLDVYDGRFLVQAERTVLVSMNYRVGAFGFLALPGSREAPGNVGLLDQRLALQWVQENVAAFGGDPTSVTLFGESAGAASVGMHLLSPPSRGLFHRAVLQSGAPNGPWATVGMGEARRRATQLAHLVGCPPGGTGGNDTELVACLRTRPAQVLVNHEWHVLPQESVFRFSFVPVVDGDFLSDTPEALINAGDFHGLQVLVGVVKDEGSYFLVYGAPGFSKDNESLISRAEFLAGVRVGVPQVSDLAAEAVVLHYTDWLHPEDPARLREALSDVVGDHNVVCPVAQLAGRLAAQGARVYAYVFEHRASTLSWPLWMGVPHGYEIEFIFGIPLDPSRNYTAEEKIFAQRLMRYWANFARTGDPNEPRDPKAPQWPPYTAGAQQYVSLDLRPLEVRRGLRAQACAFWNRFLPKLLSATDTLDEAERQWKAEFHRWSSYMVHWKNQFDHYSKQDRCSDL
# T4 sequence (O42275 24-633): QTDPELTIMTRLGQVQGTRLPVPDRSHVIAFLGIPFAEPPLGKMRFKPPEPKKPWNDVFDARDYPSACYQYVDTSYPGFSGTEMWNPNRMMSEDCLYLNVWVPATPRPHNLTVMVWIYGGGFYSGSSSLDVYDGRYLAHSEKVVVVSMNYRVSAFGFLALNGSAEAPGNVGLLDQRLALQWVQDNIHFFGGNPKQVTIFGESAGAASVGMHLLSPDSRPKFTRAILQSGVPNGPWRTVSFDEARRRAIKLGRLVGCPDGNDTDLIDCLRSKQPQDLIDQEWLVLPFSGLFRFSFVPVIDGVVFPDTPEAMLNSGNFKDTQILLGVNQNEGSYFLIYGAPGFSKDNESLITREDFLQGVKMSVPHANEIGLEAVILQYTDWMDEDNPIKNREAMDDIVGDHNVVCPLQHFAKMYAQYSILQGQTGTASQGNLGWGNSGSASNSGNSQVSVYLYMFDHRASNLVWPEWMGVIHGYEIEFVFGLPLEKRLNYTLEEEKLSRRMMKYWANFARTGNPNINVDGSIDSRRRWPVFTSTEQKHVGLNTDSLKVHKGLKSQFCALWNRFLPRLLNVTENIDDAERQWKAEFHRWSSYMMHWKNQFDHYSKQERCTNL
compound,measurement,setting,value
"CN(C)C(=O)Oc1cccc2c1cc(C(=O)NCCO)c[n+]2C [2a, reference compound]",IC50,hBuChE [1],1440 ± 286 nM
same,IC50,hAChE [2],37.1 ± 0.1 nM
same,inhibition at 1 µM,human recombinant DYRK1A,0%
"CCN1/C(=C/C(C)=O)Sc2ccc(O)cc21 [Indy, reference compound]",IC50,hBuChE [1]; [7],> 10000 nM
same,IC50,hAChE [2]; [8],> 10000 nM
"CCN1/C(=C/C(C)=O)Sc2ccc(OC(=O)OCCOCCNC(=O)C3=CN(C)c4cccc(OC(=O)N(C)C)c4C3)cc21 [compound 4, (Z)-3-((2-(2-((((3-Ethyl-2-(2-oxopropylidene)-2,3-dihydrobenzo[d]thiazol-5-yl)oxy)carbonyl)oxy)ethoxy)ethyl)carbamoyl)-1-methyl-1,4-dihydroquinolin-5-yl dimethylcarbamate]",inhibition at 10 µM,[3]; read-out: Propidium Iodide Displacement Inhibition (%),4 ± 2%
same,Papp at 4 h,"[4]; PAMPA, read-out: Pe (PAMPA BBB, passive diffusion)",2.41 ×10⁻⁶ cm/s
same,IC50,hBuChE [1],961 ± 22 nM
same,IC50,hAChE [2],1020 ± 72.1 nM
same,inhibition at 1 µM,human recombinant DYRK1A,8%
"CCN1/C(=C/C(C)=O)Sc2ccc(OC(=O)OCCOCCNC(=O)c3cc4c(OC(=O)N(C)C)cccc4[n+](C)c3)cc21.COS(=O)(=O)[O-] [compound 14, (Z)-5-((Dimethylcarbamoyl)oxy)-3-((2-(2-((((3-ethyl-2-(2-oxopropylidene)-2,3-dihydrobenzo[d]thiazol-5-yl)oxy)carbonyl)oxy)ethoxy)ethyl)carbamoyl)-1-methylquinolin-1-ium methyl sulfate]",carbamoylation rate constant k3,hBuChE [5]; hBChE,0.574 min⁻¹
same,Kd,"hBuChE [5]; hBChE, 37 °C, double reciprocal plot of kobs vs inhibitor concentration, read-out: equilibrium constant Kc",659 nM
same,"second order rate constant Ki (k3/Kc), carbamylation efficacy",hBuChE [5]; hBuChE,14500 M⁻¹ s⁻¹
same,carbamoylation rate constant k3,hAChE [6],0.408 min⁻¹
same,"second order rate constant Ki (k3/Kc), carbamylation efficacy",hAChE [6],29700 M⁻¹ s⁻¹
same,Kd,"hAChE [6]; 37 °C, double reciprocal plot of kobs vs inhibitor concentration, read-out: equilibrium constant Kc",230 nM
same,Propidium Iodide Displacement Inhibition (%),"[3]; compound 10^−5 M, eeAChE, propidium iodide 1 μM, mean value of triplicate",26 ± 1%
same,"Pe (PAMPA BBB, passive diffusion)",[4],0 ×10⁻⁶ cm/s
same,IC50,hBuChE [1]; [7],482 ± 21 nM
same,IC50,hAChE [2]; [8],81.4 ± 0.4 nM
same,DYRK1a Inhibition (%),human recombinant DYRK1A; [9],5%
"CCN1/C(=C/C(C)=O)Sc2ccc(OC(=O)OCCOCCNC(=O)c3cc4ccccc4[n+](C)c3)cc21.COS(=O)(=O)[O-] [compound 15, (Z)-3-((2-(2-((((3-Ethyl-2-(2-oxopropylidene)-2,3-dihydrobenzo[d]thiazol-5-yl)oxy)carbonyl)oxy)ethoxy)ethyl)carbamoyl)-1-methylquinolin-1-ium methyl sulfate]",inhibitory activity against hBuChE (in words),hBuChE [1],did not show any significant inhibitory activity
same,IC50,hBuChE [1]; [7],6400 ± 714 nM
same,inhibitory activity against hAChE (in words),hAChE [2],did not show any significant inhibitory activity
same,IC50,hAChE [2]; [8],> 10000 nM
same,DYRK1a Inhibition (%),human recombinant DYRK1A; [9],6%
"CCN1/C(=C/C(C)=O)Sc2ccc(OC(=O)OCCOCCNC(=O)C3=CN(C)c4ccccc4C3)cc21 [compound 16, (Z)-3-Ethyl-2-(2-oxopropylidene)-2,3-dihydrobenzo[d]thiazol-5-yl (2-(2-(1-methyl-1,4-dihydroquinoline-3-carboxamido)ethoxy)ethyl) carbonate]",IC50,hBuChE [1]; [7],> 10000 nM
same,IC50,hAChE [2]; [8],> 10000 nM
same,inhibition at 1 µM,human recombinant DYRK1A; [9],7%
